Data reported in ChEMBL document CHEMBL1201862, “PubChem BioAssay data set” (2004).
Activity calls are given as the source filed them. No stated cut-off is given here; in the data, actives have a measured IC50 and inactives only a lower limit.

Target: Envelope glycoprotein gp160 (Human immunodeficiency virus 1, UniProt Q6QLK5)
Assay: inhibitors of HIV fusion peptide binding, primary screen, biochemical, uHTS, fluorescence dequenching (AID 1986)

Chain of Envelope glycoprotein gp160 (Q6QLK5 whole entry, the tested form may be a part): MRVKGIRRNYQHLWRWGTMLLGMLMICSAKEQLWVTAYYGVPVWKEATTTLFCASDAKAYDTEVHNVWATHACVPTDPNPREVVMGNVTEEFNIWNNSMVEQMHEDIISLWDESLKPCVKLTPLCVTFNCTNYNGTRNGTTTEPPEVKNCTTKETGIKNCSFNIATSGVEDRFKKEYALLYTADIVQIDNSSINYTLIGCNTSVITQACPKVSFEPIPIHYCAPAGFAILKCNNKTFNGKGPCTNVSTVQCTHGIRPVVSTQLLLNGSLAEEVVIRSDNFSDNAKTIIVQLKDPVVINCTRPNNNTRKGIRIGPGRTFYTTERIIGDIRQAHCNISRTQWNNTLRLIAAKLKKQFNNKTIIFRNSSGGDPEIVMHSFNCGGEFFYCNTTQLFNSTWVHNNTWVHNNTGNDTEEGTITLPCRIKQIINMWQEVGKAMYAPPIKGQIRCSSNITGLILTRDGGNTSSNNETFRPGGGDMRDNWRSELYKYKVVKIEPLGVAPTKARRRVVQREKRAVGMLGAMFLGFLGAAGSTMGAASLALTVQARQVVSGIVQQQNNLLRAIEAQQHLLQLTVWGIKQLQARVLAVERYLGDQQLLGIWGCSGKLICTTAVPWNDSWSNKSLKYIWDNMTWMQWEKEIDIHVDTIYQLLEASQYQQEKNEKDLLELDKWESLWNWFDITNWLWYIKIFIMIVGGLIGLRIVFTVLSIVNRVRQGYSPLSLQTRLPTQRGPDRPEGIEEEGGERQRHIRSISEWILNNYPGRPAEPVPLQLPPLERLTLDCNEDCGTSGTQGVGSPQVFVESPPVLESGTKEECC

Row | Structure (SMILES) | IC50
1 | N#Cc1c(-c2ccccc2)nc(SCc2cccc(C(F)(F)F)c2)[nH]c1=O | 10.4 µM (active)
2 | O=[N+]([O-])c1cc(Cl)cc(/C=N/NC(=S)Nc2cc(S(=O)(=O)N3CCOCC3)ccc2Cl)c1O | 9.41 µM (active)
